Source: ChEMBL document CHEMBL3286192, “Late-Stage C-H Coupling Enables Rapid Identification of HDAC Inhibitors: Synthesis and Evaluation of NCH-31 Analogues” (ACS Med Chem Lett, 2014)
Activity calls are given as the source filed them. No cut-off for these calls is given here.

Experiments:
Histone deacetylase 1 [1] = biological target: T1, Histone deacetylase 1 (Homo sapiens, UniProt Q13547); details: at 0.1 µM
[2] = biological target: T2, Protein deacetylase HDAC6 (Homo sapiens, UniProt Q9UBN7); test: Inhibition of human HDAC6 by HDAC-Glo assay
T2 sequence (Q9UBN7 whole entry): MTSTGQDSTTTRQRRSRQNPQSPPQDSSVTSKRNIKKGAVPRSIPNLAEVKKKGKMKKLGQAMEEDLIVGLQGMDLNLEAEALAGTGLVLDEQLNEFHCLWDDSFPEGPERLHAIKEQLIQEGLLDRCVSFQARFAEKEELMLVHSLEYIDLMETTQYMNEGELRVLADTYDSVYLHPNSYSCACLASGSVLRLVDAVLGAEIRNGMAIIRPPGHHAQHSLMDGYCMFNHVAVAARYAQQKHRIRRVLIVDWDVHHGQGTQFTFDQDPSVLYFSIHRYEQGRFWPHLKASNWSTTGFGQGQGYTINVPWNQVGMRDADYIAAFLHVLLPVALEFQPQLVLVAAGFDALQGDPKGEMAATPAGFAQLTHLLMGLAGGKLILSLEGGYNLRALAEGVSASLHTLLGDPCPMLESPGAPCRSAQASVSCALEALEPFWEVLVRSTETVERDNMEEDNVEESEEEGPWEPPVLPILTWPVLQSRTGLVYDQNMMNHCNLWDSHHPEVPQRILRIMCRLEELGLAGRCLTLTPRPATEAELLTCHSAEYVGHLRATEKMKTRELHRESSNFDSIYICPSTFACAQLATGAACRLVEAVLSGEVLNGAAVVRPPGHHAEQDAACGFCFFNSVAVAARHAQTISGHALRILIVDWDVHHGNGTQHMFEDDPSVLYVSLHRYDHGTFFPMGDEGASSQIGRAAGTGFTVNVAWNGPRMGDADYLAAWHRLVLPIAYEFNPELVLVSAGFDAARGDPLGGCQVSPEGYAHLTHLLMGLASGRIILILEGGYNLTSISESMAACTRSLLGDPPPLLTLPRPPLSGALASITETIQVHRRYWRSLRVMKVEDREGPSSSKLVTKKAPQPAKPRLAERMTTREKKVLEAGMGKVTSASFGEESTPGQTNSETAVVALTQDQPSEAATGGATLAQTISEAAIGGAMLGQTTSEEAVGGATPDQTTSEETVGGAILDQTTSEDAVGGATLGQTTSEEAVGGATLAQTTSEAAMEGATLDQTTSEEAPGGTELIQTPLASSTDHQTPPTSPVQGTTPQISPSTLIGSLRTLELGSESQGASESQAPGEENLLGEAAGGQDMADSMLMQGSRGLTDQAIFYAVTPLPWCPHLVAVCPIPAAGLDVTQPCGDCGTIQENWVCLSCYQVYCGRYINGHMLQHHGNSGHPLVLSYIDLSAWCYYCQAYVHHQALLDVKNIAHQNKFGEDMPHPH

Histone deacetylase 9 [3] = biological target: T3, Histone deacetylase 9 (Homo sapiens, UniProt Q9UKV0); test: Inhibition of human HDAC9 by HDAC-Glo assay
Histone deacetylase 1 [4] = biological target: T1, Histone deacetylase 1; test: Inhibition of human HDAC1 by HDAC-Glo assay
Histone deacetylase 9 [5] = biological target: T3, Histone deacetylase 9; test: Inhibition of human HDAC9 at 0.1 uM by HDAC-Glo assay
[6] = biological target: T4, Protein deacetylase HDAC6 (Homo sapiens) (UniProt Q9UBN7); test: Inhibition of human HDAC6 at 1 uM by HDAC-Glo assay
T4 sequence (whole entry): T2 sequence (Q9UBN7 whole entry)

T1 sequence (Q13547 whole entry): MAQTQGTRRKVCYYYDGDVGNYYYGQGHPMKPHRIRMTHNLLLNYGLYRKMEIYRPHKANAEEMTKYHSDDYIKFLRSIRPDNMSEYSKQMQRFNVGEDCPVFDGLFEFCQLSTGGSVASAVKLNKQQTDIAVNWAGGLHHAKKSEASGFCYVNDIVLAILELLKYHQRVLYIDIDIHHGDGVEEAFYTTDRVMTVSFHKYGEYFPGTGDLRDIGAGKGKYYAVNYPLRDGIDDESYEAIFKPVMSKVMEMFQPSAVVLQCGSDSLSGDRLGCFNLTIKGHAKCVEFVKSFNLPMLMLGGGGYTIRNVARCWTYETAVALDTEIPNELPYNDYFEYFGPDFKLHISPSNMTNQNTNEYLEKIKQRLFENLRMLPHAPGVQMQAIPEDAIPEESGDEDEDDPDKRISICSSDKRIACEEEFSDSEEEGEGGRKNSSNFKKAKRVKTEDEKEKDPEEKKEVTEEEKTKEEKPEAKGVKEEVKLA
T3 sequence (Q9UKV0 whole entry): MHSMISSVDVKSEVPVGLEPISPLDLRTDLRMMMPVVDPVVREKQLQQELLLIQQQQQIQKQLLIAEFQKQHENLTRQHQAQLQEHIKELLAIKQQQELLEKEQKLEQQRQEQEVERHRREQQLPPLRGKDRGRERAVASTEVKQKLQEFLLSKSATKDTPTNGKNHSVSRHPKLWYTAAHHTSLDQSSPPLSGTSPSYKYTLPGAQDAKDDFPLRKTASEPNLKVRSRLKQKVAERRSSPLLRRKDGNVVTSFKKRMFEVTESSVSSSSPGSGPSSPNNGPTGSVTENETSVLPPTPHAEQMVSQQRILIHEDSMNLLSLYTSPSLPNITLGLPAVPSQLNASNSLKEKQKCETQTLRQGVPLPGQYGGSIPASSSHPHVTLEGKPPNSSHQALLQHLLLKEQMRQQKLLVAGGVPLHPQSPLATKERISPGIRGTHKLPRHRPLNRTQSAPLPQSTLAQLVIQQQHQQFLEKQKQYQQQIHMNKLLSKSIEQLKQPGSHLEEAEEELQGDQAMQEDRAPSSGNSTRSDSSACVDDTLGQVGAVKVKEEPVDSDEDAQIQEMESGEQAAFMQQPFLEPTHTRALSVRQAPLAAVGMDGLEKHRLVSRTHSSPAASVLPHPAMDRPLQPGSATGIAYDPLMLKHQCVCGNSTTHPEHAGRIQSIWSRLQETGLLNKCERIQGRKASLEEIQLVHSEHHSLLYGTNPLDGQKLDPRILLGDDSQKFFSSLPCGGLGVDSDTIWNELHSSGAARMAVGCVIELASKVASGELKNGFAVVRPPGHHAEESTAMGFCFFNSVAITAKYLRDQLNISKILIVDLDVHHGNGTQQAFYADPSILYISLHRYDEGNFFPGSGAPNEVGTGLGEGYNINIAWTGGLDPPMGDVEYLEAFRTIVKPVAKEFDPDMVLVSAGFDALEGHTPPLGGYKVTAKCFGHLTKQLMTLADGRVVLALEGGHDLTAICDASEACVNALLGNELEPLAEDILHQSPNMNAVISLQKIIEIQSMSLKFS

Structure (SMILES)	inhibition (Histone deacetylase 1 [1])	IC50 [2] [nM]	IC50 (Histone deacetylase 9 [3]) [nM]	IC50 (Histone deacetylase 1 [4]) [nM]	inhibition (Histone deacetylase 9 [5])	inhibition [6] [%]
Cc1cc(C)cc(-c2csc(NC(=O)CCCCCCS)n2)c1	Active					
O=C(CCCCCCS)Nc1nc(-c2ccccc2)cs1		230	82	96		
CCCCc1ccc(-c2csc(NC(=O)CCCCCCS)n2)cc1	Active					
COc1cc(OC)cc(-c2csc(NC(=O)CCCCCCS)n2)c1	Active					
O=C(CCCCCCS)Nc1nc(-c2ccc(F)cc2)cs1	Active	550	57	36	Active	
COc1c(C)cc(-c2csc(NC(=O)CCCCCCS)n2)cc1C	Active					
COc1ccc(-c2csc(NC(=O)CCCCCCS)n2)cc1C	Active					
O=C(CCCCCCS)Nc1nc(-c2cccc(F)c2)cs1	Active	150	78	49	Active	70
CN(C(=O)CCCCCCS)c1nc(-c2ccccc2)cs1	inactive					
COc1cccc(-c2csc(NC(=O)CCCCCCS)n2)c1	Active					70
Cc1cccc(-c2csc(NC(=O)CCCCCCS)n2)c1	Active					
O=C(CCCCCCS)Nc1nc(-c2cccc(Cl)c2)cs1	Active					
O=C(CCCCCCS)Nc1nc(-c2ccc(OC(F)(F)F)cc2)cs1	Active					
CC(C)(C)c1ccc(-c2csc(NC(=O)CCCCCCS)n2)cc1	Active					
Cc1ccc(-c2csc(NC(=O)CCCCCCS)n2)cc1	Active		42	57	Active	
COc1ccc(-c2csc(NC(=O)CCCCCCS)n2)cc1	Active					
Cc1ccc(-c2csc(NC(=O)CCCCCCS)n2)cc1F	Active	6100	62	50	Active	
